Measured values as given in patent US12589229B2, “Macroporous solid hard microneedles with embedded particulate drugs” (priority 2021, dated 2026).
Structures can show the parent of a compound that is named as a salt. One block for each molecule: values may come before it.

Experiments:
[1] = FTIR spectroscopy of drug encapsulated in resin microneedles (changes during fabrication); format: physicochemical; details: drug encapsulated in cured resin microneedle vs powder
Text: FTIR spectroscopy was used to evaluate possible changes in the encapsulated drugs during the fabrication process. A Nicolet 6700 (ThermoScientific™; Waltham, MA, USA) with a Smart™ iTX ATR accessory having a diamond crystal was used. […] In FTIR, an increase in the peak intensity usually reflects an increase in the amount (per unit volume) of the functional group associated with the molecular bond, whereas a shift in peak position usually reflects a change in the hybridization state or electron distribution in the molecular bond. […] The peaks at 1721 cm^−1 and 3400 cm^−1 are assigned to the stretching vibrations of C═O and O—H, respectively.

[2] = In vitro dye release from dye-loaded microneedle patch into parafilm-covered gelatin; format: physicochemical; details: 10% gelatin covered with parafilm
Procedure: In order to show in vitro release of the microneedles visually, a resin/dye paste was prepared. A biocompatible resin (Dental SG) from Formlabs (Somerville, MA, USA) and sulforhodamine B (SKU: 230162-5G, MilliporeSigma; Burlington, MA, USA) as dye were used. Due to the small size of the microneedles, the dye particles were ground into finer particles with smaller sizes. The encapsulation of unground and ground dye in microneedles was compared by preparing microneedles with both unground and ground sulforhodamine B particles. The unground and ground particles of the dye are shown in FIGS. 35a and 35b, respectively, and the size distribution of the unground and ground dye is shown in FIG. 35c. On average, the unground and ground dye particles had particle sizes of about 50 micrometers and 6 micrometers, respectively. […] A solid acrylic ring was added around the substrate so that the microneedle patch could be held and applied easily (see FIG. 35g). The in vitro dye release experiment is shown schematically in FIG. 35h. A 10% gelatin (gelatin from porcine skin, SKU: G2500-1KG from Millipore Sigma) solution was prepared as a model tissue and was poured in a petri dish. Then, it was placed in the refrigerator for 20 minutes to further solidify. A thin layer of parafilm (Parafilm ° M, Amcor; Zurich, Switzerland) was then used as a skin model to cover the gelatin solution in the petri dish.

[3] = tested on: CD20+ cells; assay: In vitro whole blood assay with RTX-loaded microneedle patches, flow cytometry; format: cell-based, human
Procedure: To evaluate the effectiveness of the treatment being delivered through microneedles an in vitro model, a whole blood assay was performed using Rituximab (RTX) as the drug. Rituximab is a chimeric monoclonal antibody against the protein CD20, which is primarily found on the surface of immune system B cells. When it binds to this protein it triggers cell death via Complement-Dependent Cytotoxicity (CDC). RTX is a good model to evaluate the mAb delivery mechanism mainly because of its clear pharmacodynamics outcome, the depletion of CD20+B-Cell in whole blood. Microneedle patches with five different amounts of RTX and a constant polymer-to-drug ratio were incubated in freshly collected human blood in a 24-well plate. Flow cytometry was used to quantify CD20+ and CD19+ cells in each well. […] CD20+ cells are present in samples (a) through (c) on the left but absent from samples (d) through (f) on the right. The conditions are as follows: (a) Buffy coat and serum without microneedle (MN) exposure and prior to incubation; (b) Blood without MN exposure and after 4 h incubation; (c) Blood with exposure to an inert MN after incubation; (d) Blood after incubation with one MN (20 μg RTX); (e) blood after incubation with five MNs (100 μg RTX); and (f) blood after incubation with 200 MNs (4 mg RTX). […]

[4] = tested on: circulating B cells; assay: In vivo primate study, rituximab IV versus microneedle transdermal delivery, circulating B cells by flow cytometry; design: species or system African green monkeys; details: IV dosing, first week
Procedure: An in vivo primate study was performed to compare the systemic pharmacodynamic effect of rituximab (RTX) following intravenous (IV) delivery versus microneedle-mediated, transdermal (TD) delivery in African green monkeys. […] The pharmacodynamic effect was quantified by the measurement of circulating B cells by flow cytometry (all these graphs are generated by flow cytometry), employing rituximab as a tool compound to assess the ability of a novel microneedle formulation and delivery technology to achieve systemic bioavailability of macromolecules (e.g. monoclonal antibodies) following transdermal delivery. […] The depletion over time for the two patches is shown in FIG. 29 for 0, 1, 7, 14 and 21 days.

- chemical structure during the fabrication process (FTIR) [1]: remained unchanged
Molecule: CC(C)Cc1ccc(C(C)C(=O)[O-])cc1.[Na+] (centres unmarked) [ibuprofen, ibuprofen sodium salt]

Molecule: CCN(CC)CC(=O)Nc1c(C)cccc1C [lidocaine, lidocaine hydrochloride monohydrate]
- chemical structure during the fabrication process (FTIR) [1]: remained unchanged

- release of the dye into the gelatin solution [2]: visible release
Molecule: CCN(CC)c1ccc2c(-c3ccc(S(=O)(=O)O)cc3S(=O)(=O)[O-])c3ccc(=[N+](CC)CC)cc-3oc2c1 [sulforhodamine B]

Molecule: Rituximab
- activity of RTX after completion of the microneedle patch manufacturing process [3]: preserved
- B-cell depletion in blood [4]: most significant B-cell depletion
